Experimental data reported in ChEMBL document CHEMBL2413011, “One-pot tandem Hurtley-retro-Claisen-cyclisation reactions in the synthesis of 3-substituted analogues of 5-aminoisoquinolin-1-one (5-AIQ), a water-soluble inhibitor of PARPs” (Bioorg Med Chem, 2013).

Biological target: Poly [ADP-ribose] polymerase 2 (Mus musculus, UniProt O88554)
Experiment: Inhibition of mouse PARP-2

Sequence of Poly [ADP-ribose] polymerase 2 (O88554 whole entry): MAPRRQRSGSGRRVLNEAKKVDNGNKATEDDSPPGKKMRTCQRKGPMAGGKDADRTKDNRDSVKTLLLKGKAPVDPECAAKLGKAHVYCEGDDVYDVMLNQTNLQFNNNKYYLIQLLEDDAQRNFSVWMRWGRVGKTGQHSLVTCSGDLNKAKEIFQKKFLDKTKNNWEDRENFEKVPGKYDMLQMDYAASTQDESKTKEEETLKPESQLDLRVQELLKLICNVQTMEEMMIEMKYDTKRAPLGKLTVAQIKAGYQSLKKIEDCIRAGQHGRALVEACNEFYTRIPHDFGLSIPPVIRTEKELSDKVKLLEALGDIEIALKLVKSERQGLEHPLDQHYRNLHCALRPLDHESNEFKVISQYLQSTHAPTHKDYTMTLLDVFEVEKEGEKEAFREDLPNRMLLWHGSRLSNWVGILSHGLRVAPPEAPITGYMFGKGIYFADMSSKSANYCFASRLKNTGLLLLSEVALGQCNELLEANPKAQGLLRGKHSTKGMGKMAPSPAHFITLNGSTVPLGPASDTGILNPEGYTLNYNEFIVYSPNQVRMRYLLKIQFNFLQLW

SMILES	IC50 [nM]
Nc1cccc2c(=O)[nH]c(-c3ccc(C(F)(F)F)cc3)cc12	170
Nc1cccc2c(=O)[nH]c(-c3ccccc3)cc12	480
Cc1ccc(-c2cc3c(N)cccc3c(=O)[nH]2)cc1	120
COc1ccc(-c2cc3c(N)cccc3c(=O)[nH]2)cc1	730
Nc1cccc2c(=O)[nH]c(-c3ccc(Cl)cc3)cc12	160
Cc1cc2c(N)cccc2c(=O)[nH]1	260
CCc1cc2c(N)cccc2c(=O)[nH]1	830

Biological target: T1, Poly [ADP-ribose] polymerase 1 (Homo sapiens, UniProt P09874)
Experiment: Inhibition of human PARP-1 assessed as synthesis of [3H]-ADP-ribose polymers from [3H]-NAD+ by scintillation proximity assay

T1 sequence (P09874 whole entry): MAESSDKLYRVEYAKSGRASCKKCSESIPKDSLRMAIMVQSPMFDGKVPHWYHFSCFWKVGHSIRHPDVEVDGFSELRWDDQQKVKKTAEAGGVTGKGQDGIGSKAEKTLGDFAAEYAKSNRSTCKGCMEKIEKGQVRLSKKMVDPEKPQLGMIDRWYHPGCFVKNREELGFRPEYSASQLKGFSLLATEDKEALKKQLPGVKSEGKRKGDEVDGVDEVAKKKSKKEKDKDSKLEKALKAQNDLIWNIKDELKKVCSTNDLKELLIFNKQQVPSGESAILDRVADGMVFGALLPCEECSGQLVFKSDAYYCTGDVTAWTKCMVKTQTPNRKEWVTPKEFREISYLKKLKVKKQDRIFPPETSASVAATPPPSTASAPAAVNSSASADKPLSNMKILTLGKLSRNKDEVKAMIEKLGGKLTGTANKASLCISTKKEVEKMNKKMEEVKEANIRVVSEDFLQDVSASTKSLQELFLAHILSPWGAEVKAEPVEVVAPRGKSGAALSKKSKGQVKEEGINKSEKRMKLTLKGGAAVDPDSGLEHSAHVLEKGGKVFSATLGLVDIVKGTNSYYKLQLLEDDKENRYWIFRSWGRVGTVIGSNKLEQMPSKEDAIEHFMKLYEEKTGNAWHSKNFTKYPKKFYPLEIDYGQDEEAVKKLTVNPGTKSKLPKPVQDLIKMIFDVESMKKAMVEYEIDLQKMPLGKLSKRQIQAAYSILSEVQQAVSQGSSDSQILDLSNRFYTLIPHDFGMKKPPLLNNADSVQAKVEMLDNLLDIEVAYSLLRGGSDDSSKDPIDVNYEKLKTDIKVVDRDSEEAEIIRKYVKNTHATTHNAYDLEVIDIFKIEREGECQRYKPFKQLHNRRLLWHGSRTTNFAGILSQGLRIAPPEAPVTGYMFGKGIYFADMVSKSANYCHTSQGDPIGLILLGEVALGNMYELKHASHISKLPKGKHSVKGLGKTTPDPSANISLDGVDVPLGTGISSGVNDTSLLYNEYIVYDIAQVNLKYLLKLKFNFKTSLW

SMILES	IC50 [nM]
Nc1cccc2c(=O)[nH]ccc12	1600

Biological target: T1, Poly [ADP-ribose] polymerase 1
Experiment: Inhibition of PARP-1 (unknown origin) in broken nuclear preparation

SMILES	IC50 [nM]
Nc1cccc2c(=O)[nH]ccc12	300

Biological target: Poly [ADP-ribose] polymerase 1 (Bos taurus, UniProt P18493)
Experiment: Inhibition of calf thymus PARP-1

Sequence of Poly [ADP-ribose] polymerase 1 (Bos taurus, UniProt P18493) (P18493 whole entry): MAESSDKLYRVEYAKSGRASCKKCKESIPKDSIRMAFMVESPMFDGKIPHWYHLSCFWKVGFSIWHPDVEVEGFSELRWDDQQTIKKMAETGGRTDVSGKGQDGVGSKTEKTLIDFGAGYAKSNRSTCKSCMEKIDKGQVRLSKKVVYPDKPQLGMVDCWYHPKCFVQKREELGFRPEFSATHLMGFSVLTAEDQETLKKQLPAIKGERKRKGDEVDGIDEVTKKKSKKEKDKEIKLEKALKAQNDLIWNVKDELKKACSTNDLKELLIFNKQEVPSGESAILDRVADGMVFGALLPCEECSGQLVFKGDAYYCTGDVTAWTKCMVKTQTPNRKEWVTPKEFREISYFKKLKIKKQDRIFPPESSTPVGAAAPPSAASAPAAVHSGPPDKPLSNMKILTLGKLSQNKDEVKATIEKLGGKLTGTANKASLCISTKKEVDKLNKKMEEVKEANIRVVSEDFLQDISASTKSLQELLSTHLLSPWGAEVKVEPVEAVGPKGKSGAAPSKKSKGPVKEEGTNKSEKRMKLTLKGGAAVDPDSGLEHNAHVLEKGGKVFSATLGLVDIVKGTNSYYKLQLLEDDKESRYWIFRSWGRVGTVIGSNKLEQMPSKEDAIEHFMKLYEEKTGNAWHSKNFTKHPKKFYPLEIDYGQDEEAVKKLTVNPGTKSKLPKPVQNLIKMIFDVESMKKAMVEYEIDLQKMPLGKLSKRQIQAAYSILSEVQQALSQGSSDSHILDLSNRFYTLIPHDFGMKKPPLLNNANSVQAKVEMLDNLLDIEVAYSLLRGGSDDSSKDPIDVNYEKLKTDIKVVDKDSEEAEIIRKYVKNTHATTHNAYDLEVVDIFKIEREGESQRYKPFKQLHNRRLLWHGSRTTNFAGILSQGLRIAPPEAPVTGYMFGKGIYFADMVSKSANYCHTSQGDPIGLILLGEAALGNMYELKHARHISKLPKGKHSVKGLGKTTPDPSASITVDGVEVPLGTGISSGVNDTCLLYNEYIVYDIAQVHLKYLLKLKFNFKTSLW

SMILES	IC50 [nM]
Nc1cccc2c(=O)[nH]ccc12	250

Test system: not listed separately
Experiment: Solubility of the compound in water
Type: physicochemical

SMILES	solubility [mM]
Cl.Nc1cccc2c(=O)[nH]c(-c3ccc(C(F)(F)F)cc3)cc12	> 30
Cl.Nc1cccc2c(=O)[nH]c(-c3ccccc3)cc12	> 30
Cc1ccc(-c2cc3c(N)cccc3c(=O)[nH]2)cc1.Cl	> 30
COc1ccc(-c2cc3c(N)cccc3c(=O)[nH]2)cc1.Cl	> 30
Cl.Nc1cccc2c(=O)[nH]c(-c3ccc(Cl)cc3)cc12	> 30
Cl.Nc1cccc2c(=O)[nH]c(-c3cccs3)cc12	> 30
Cc1cc2c(N)cccc2c(=O)[nH]1.Cl	> 30
CCCCCc1cc2c(N)cccc2c(=O)[nH]1.Cl	> 30
Cl.Nc1cccc2c(=O)[nH]c(Cc3ccccc3)cc12	> 30
CCc1cc2c(N)cccc2c(=O)[nH]1.Cl	> 30
CC(C)Cc1cc2c(N)cccc2c(=O)[nH]1.Cl	> 30
